Assays:
B. subtilis 168 [1] = assay: fitness (endpoint OD595 vs no drug) (fraction); higher = more growth
Summary of the method: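 Plates with 384 wells were inoculated at OD595 0.01 using 30 µl of TSB, LB Lennox or CY, or 55 µl for S. pneumoniae. Incubation was at 37 °C, with OD595 measured every 30 min for 14 h. Fitness is the stationary-phase transition optical density over the robust mean of no-drug control wells, after first-reading background subtraction; it is capped at 1.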

B. subtilis 168 [2] = assay: Bliss interaction score (quartile over a dose matrix) (fitness difference); higher = more antagonism (negative = synergy)
Summary of the method: (§1)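 The Bliss score takes observed fitness and subtracts the expected fitness, calculated as a product of single-drug fitness values. Those single-drug values were inferred from the combination data. Fitness is OD595 at entry into stationary phase divided by the plate's robust no-drug mean, capped at 1, and the score is summarised by quartiles across technical, biological and donor/recipient replicates.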

S. aureus DSM 20231 = assay: as above
Summary of the method: as §1

S. aureus Newman = assay: as above
Summary of the method: as §1

S. pneumoniae D39V = assay: as above
Summary of the method: as §1
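For Bliss interaction score (quartile over a dose matrix) in this document: first quartile when negative (synergy) and third quartile when positive (antagonism).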

CO/N=C(\C(=O)N[C@@H]1C(=O)N2C(C(=O)O)=C(COC(N)=O)CS[C@H]12)c1ccco1 [Cefuroxime] + CN(C)C(=O)C(CCN1CCC(O)(c2ccc(Cl)cc2)CC1)(c1ccccc1)c1ccccc1 [Loperamide]
fitness, B. subtilis 168 [1]
Conditions | first compound 0.04875 µg/mL | first compound 0.0975 µg/mL | first compound 0.195 µg/mL
partner 50 µg/mL | 0.0325 | 0.0377 | 0.0259
partner 100 µg/mL | 0.0294 | 0.0312 | 0.0385

fitness, B. subtilis 168 [1], one replicate
Conditions | first compound 1.562 µg/mL | first compound 3.125 µg/mL | first compound 6.25 µg/mL
partner 25 µg/mL | 0.0361 | 0.0294 | 0.0192
partner 50 µg/mL | 0.0196 | 0.033 | 0.0196
partner 100 µg/mL | 0.012 | 0.0049 | 0.0099

Conditions | Bliss interaction score
B. subtilis 168 [2] | -0.12
S. aureus DSM 20231 | -0.521
S. aureus Newman | -0.0645
S. pneumoniae D39V | -0.0403

CO/N=C(\C(=O)N[C@@H]1C(=O)N2C(C(=O)O)=C(COC(N)=O)CS[C@H]12)c1ccco1 [Cefuroxime] + C[C@H]1c2cccc(O)c2C(=O)C2=C(O)[C@]3(O)C(=O)C(C(N)=O)=C(O)[C@@H](N(C)C)[C@@H]3[C@@H](O)[C@@H]21 [Doxycycline]
fitness, B. subtilis 168 [1]
Conditions | first compound 0.04875 µg/mL | first compound 0.0975 µg/mL | first compound 0.195 µg/mL
partner 0.02 µg/mL | 0.663 | 0.603 | 0.514
partner 0.04 µg/mL | 0.6 | 0.525 | 0.358
partner 0.08 µg/mL | 0.174 | 0.14 | 0.12

fitness, B. subtilis 168 [1], one replicate
Conditions | first compound 0.39 µg/mL | first compound 0.78 µg/mL | first compound 1.562 µg/mL | first compound 3.125 µg/mL | first compound 6.25 µg/mL
partner 0.02 µg/mL | 0.488 | 0.451 | 0.441 | 0.424 | 0.393
partner 0.04 µg/mL | 0.313 | 0.298 | 0.239 | 0.148 | 0.0995
partner 0.08 µg/mL | 0.236 | 0.225 | 0.0559 | 0.0405 | 0.0345

Conditions | Bliss interaction score
B. subtilis 168 [2] | 0.105
S. aureus DSM 20231 | -0.257
S. aureus Newman | -0.0377
S. pneumoniae D39V | 0.0445

COc1cccc2c1C(=O)c1c(O)c3c(c(O)c1C2=O)C[C@@](O)(C(=O)CO)C[C@@H]3O[C@H]1C[C@H](N)[C@H](O)[C@H](C)O1 [Doxorubicin] + CO[C@@H]1[C@@H](OC(N)=O)[C@@H](O)[C@H](Oc2ccc3c(O)c(NC(=O)c4ccc(O)c(CC=C(C)C)c4)c(=O)oc3c2C)OC1(C)C [Novobiocin]
fitness, B. subtilis 168 [1]
Conditions | first compound 0.625 µg/mL | first compound 1.25 µg/mL | first compound 2.5 µg/mL
partner 0.0125 µg/mL | 0.984 | 0.931 | 0.787
partner 0.025 µg/mL | 0.971 | 0.893 | 0.727
partner 0.05 µg/mL | 0.993 | 0.938 | 0.631

fitness, B. subtilis 168 [1], one replicate
Conditions | partner 0.1 µg/mL | partner 0.125 µg/mL | partner 0.2 µg/mL | partner 0.25 µg/mL | partner 0.5 µg/mL
first compound 0.625 µg/mL | 0.972 | 0.912 | ≥ 1 | 0.793 | 0.516
first compound 1.25 µg/mL | 0.99 | 0.901 | 0.971 | 0.785 | 0.305
first compound 2.5 µg/mL | 0.571 | 0.834 | 0.588 | 0.386 | 0.0091

Conditions | Bliss interaction score
B. subtilis 168 [2] | 0.0565
S. aureus DSM 20231 | -0.0601
S. aureus Newman | -0.082
S. pneumoniae D39V | -0.106

CO/N=C(\C(=O)N[C@@H]1C(=O)N2C(C(=O)O)=C(COC(N)=O)CS[C@H]12)c1ccco1 [Cefuroxime] + C[C@H]1COc2c(N3CCN(C)CC3)c(F)cc3c(=O)c(C(=O)O)cn1c23 [Levofloxacin]
fitness, B. subtilis 168 [1], one replicate
Conditions | first compound 0.04875 µg/mL | first compound 0.0975 µg/mL | first compound 0.195 µg/mL | first compound 0.39 µg/mL | first compound 0.78 µg/mL | first compound 1.562 µg/mL | first compound 3.125 µg/mL | first compound 6.25 µg/mL
partner 0.001 µg/mL | – | – | 0.284 | 0.15 | 0.156 | – | – | –
partner 0.002 µg/mL | 0.503 | 0.466 | – | 0.146 | 0.112 | – | – | –
partner 0.0039 µg/mL | 0.498 | 0.456 | – | 0.127 | 0.0881 | – | – | –
partner 0.0078 µg/mL | 0.432 | 0.397 | 0.334 | – | – | – | – | –
partner 0.0312 µg/mL | 0.055 | 0.0225 | 0.0495 | – | – | 0.0432 | 0.0263 | 0.0208
partner 0.0625 µg/mL | 0.0626 | 0.0281 | 0.0412 | – | – | 0.0291 | 0.027 | 0.0162
partner 0.125 µg/mL | 0.0489 | 0.0206 | 0.0412 | – | – | 0.0267 | 0.0197 | 0.0093

B. subtilis 168 [1], first compound 0.195 µg/mL
Conditions | fitness
partner 0.002 µg/mL | 0.291
partner 0.0039 µg/mL | 0.267

Conditions | Bliss interaction score
B. subtilis 168 [2] | -0.0899
S. aureus DSM 20231 | -0.22
S. aureus Newman | -0.146
S. pneumoniae D39V | 0.0603

CO/N=C(\C(=O)N[C@@H]1C(=O)N2C(C(=O)O)=C(COC(N)=O)CS[C@H]12)c1ccco1 [Cefuroxime] + CC(=O)NC[C@H]1CN(c2ccc(N3CCOCC3)c(F)c2)C(=O)O1 [Linezolid]
fitness, B. subtilis 168 [1]
Conditions | first compound 0.04875 µg/mL | first compound 0.0975 µg/mL | first compound 0.195 µg/mL
partner 0.125 µg/mL | 0.532 | 0.526 | 0.423
partner 0.25 µg/mL | 0.293 | 0.261 | 0.0774
partner 0.5 µg/mL | 0.103 | 0.0891 | 0.0749

fitness, B. subtilis 168 [1], one replicate
Conditions | first compound 0.195 µg/mL | first compound 0.39 µg/mL | first compound 0.78 µg/mL | first compound 1.562 µg/mL | first compound 3.125 µg/mL | first compound 6.25 µg/mL
partner 0.0625 µg/mL | 0.379 | 0.312 | 0.235 | – | – | –
partner 0.125 µg/mL | – | 0.227 | 0.14 | 0.331 | 0.384 | 0.308
partner 0.25 µg/mL | – | 0.0397 | 0.0222 | 0.0445 | 0.0527 | 0.0345
partner 0.5 µg/mL | – | – | – | 0.0242 | 0.0246 | 0.0074

Conditions | Bliss interaction score
B. subtilis 168 [2] | 0.139
S. aureus DSM 20231 | -0.208
S. aureus Newman | 0.0749
S. pneumoniae D39V | 0.079
